Experimental data: publication PMC12152171, “Dual-mode recognition of tRNA^Pro isoacceptors by Toxoplasma gondii Prolyl-tRNA synthetase” (EMBO Reports, 2025)
Where two headings read alike, the source gives them in different places.

Tests used:
[1] = target: T1, Toxoplasma gondii prolyl-tRNA synthetase (TgProRS) (Toxoplasma gondii, UniProt S8G8I1); test: [3H]-proline aminoacylation inhibition assay with cytosolic tRNA(Pro) (TgtRNAn^Pro); IC50 […] with apicoplast TgtRNAa^Pro; assay type: biochemical
T1 construct: gene TGME49_219850; lacking OTS and ProXp-ala (amino acid residues 1–333 removed), N-terminal His10 tag

[2] = target: T1, Toxoplasma gondii prolyl-tRNA synthetase (TgProRS); test: as above; assay type: biochemical; remark: listed apart in the source

T1 sequence (S8G8I1 entry or part of it): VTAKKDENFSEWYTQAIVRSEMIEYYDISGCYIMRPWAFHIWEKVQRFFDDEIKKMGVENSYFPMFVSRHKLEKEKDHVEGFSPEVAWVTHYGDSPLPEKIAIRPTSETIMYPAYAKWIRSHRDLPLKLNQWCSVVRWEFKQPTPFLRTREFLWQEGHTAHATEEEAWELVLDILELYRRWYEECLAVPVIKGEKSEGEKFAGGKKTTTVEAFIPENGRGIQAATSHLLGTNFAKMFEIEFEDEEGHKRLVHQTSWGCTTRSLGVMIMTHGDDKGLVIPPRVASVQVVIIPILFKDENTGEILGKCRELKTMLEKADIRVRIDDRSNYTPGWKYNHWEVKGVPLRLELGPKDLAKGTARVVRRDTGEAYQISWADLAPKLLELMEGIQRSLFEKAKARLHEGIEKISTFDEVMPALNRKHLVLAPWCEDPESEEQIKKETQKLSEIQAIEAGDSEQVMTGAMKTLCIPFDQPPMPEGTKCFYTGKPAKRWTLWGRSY

| SMILES | IC50 [1] [µM] | IC50 [2] [µM] |
| --- | --- | --- |
| O=C(C[C@H]1NCCC[C@@H]1O)Cn1cnc2cc(Br)c(Cl)cc2c1=O (racemic) [HF, Halofuginone] | 0.005 | – |
| O=C(O)[C@@H]1CCN1 [A2C, Azetidine-2-carboxylic acid] | – | 1300 |
